Reference: patent US8173689B2 (Novartis AG, priority 2006, dated 2012)
Read-outs that look alike come from different tables or passages of the source.

What was measured:
[1] = biological target: T1, kinase domain of cKIT (Homo sapiens, UniProt P10721); assay: Inhibition of cKIT kinase signaling in an in vitro biochemical assay (alphascreen); details: tested at about 1 μM, read-out: cKit percent inhibition
T1 construct: The kinase domain of cKIT was assayed in 50 mM Hepes; purchased Upstate 14-559

[2] = biological target: T2, kinase domain of PDGFRβ (Homo sapiens, UniProt P09619); assay: Inhibition of PDGFRb kinase signaling in an in vitro biochemical assay (alphascreen); details: tested at about 1 μM, read-out: PDGFRβ percent inhibition
T2 construct: The kinase domain of PDGFRβ was assayed in 50 mM Hepes; purchased Invitrogen P3082

[3] = biological target: T3, full-length human CSF-1R receptor (Homo sapiens, UniProt P07333); assay: In vitro inhibition of CSF-1R receptor tyrosine phosphorylation in transfected HEK293H cells stimulated with MCSF; assay type: cell-based; details: HEK293-H, tested at about 1 μM, read-out: pCSF1R percent inhibition
T3 construct: transfected with the full-length human CSF-1R receptor cloned in house; expressed in transfected cells; host or cells: HEK293H (Invitrogen Cat. #11631017)
Description: The lysate was then transferred to total CSF-1R antibody coated 96-well plates that had already been blocked with 3% Blocker A from Mesoscale discovery (MSD) for 2 hours and washed afterwards. Lysates were incubated overnight at 4° C. and the plates were then washed 4× with MSD Tris Wash Buffer. […] The plates were read on the Sector 6000 instrument (MSD). Raw data was imported in Abase and EC50s calculated with XL-fit data analysis software.

[4] = biological target: T4, cytoplasmic domain of the human CSF-1R (Homo sapiens, UniProt P07333); assay: In vitro kinase assay for colony stimulating factor-1 receptor (AlphaScreen); assay type: biochemical; details: tested at about 1 μM, read-out: CSF-1R percent inhibition
T4 construct: Recombinant protein corresponding to the cytoplasmic domain of the human CSF-1R; purchased Invitrogen Corporation, Carlsbad, Calif; PV3249
T4 sequence (P07333 539-972 limits assumed): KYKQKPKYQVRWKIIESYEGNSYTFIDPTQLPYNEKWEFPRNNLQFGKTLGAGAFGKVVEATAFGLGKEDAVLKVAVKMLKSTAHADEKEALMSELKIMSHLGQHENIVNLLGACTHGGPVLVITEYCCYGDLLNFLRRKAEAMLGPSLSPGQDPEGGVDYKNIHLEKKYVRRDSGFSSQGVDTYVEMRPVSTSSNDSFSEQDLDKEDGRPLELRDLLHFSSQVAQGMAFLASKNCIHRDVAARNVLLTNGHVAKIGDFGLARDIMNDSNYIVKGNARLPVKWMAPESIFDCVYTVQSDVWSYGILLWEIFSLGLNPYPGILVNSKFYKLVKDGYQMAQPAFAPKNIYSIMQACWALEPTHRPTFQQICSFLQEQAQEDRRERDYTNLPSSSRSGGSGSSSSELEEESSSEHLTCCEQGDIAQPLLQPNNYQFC
How it was run: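 At a low ATP level of 1 μM, phosphate transfer by the cytoplasmic-domain kinase (4 nM) was quantified with an AlphaScreen anti-phosphotyrosine bead pair.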

[5] = system: MNFS60 (murine AML cells); assay: Cell viability assay in MCSF dependent MNFS60 cells (Cell Titer Glo); assay type: cell-based; details: Mus musculus, tested at about 1 μM, read-out: M-NFS-60 CP percent inhibition
How it was run: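 Viability was read by Cell Titer Glo after 72 hrs at 37° C., 5% CO2, with triplicate conditions. Compounds were titrated 3-fold into MNFS60 cultures whose final MCSF level was 10 ng/ml. EC50 values came from curve fitting.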

T1 sequence (P10721 589-937 limits assumed): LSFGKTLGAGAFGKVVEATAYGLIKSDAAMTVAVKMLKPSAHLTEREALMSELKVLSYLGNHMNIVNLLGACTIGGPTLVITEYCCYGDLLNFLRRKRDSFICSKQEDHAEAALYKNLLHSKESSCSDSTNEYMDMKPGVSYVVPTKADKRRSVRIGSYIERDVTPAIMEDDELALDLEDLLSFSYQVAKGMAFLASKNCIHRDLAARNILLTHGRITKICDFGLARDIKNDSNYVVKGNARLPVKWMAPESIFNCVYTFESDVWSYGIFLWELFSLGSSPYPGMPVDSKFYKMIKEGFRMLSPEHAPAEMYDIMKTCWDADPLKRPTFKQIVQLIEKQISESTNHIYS
T3 sequence (P07333 20-972): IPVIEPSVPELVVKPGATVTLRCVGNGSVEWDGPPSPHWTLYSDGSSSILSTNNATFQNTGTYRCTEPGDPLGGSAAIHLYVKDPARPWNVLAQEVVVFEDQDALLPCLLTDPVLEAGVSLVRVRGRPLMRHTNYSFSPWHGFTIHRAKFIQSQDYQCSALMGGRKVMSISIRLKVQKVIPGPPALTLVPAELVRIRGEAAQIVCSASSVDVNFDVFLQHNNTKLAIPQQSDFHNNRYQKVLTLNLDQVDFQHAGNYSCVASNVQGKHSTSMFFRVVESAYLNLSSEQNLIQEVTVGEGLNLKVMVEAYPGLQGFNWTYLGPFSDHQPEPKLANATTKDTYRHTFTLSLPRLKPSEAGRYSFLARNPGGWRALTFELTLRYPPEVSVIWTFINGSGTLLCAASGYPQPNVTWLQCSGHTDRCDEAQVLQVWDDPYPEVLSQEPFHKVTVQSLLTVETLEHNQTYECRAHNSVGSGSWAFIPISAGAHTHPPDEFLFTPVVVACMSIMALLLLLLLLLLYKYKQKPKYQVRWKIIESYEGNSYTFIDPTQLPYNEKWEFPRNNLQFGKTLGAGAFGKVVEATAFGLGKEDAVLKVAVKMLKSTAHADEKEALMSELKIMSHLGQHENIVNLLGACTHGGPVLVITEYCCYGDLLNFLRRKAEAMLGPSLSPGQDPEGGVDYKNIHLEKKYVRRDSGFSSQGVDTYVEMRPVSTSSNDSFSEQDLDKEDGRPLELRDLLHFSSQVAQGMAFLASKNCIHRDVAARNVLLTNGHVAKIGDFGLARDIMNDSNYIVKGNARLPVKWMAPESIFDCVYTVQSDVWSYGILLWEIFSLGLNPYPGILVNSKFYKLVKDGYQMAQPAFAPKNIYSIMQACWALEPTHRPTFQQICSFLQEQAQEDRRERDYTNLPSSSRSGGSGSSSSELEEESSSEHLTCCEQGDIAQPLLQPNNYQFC
T2 sequence (P09619 600-962 limits assumed): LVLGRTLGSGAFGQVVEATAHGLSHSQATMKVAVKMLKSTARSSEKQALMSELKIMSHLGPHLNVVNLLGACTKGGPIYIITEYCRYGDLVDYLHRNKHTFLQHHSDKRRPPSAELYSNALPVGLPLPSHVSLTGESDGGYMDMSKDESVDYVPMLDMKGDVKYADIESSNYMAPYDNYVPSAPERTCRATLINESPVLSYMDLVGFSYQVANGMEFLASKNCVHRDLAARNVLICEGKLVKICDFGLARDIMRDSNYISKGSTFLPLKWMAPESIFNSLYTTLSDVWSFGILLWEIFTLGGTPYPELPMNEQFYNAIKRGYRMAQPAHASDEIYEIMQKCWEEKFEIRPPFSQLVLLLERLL

Row | SMILES | inhibition at 1 µM ([1]; compounds of Table 3) [%] | inhibition at 1 µM ([2]; compounds of Table 3) [%] | inhibition at 1 µM ([3]; compounds of Table 3) [%] | inhibition at 1 µM ([4]; compounds of Table 3) [%] | inhibition at 1 µM [1] [%] | inhibition at 1 µM [2] [%] | inhibition at 1 µM ([3]; HEK293H cells) [%] | inhibition at 1 µM [4] [%] | inhibition at 1 µM ([5]; compounds of Table 3) [%] | inhibition at 1 µM ([5]; MNFS60 cells) [%] | inhibition at 1 µM ([5]; MCSF dependent MNFS60 cells) [%]
1 | O[C@H]1Cc2ccccc2[C@H]1Nc1nc2ccc(Oc3ccnc4ccccc34)cc2s1 [Example 237, (1R,2S)-1-(6-(quinolin-4-yloxy)benzo[d]thiazol-2-ylamino)-2,3-dihydro-1H-inden-2-ol] | 24 | 13 | 94 | 100 |  |  |  |  | 100 |  | 
2 | CNC(=O)c1cc(Oc2ccc3nc(N[C@H](C)C4CCCCC4)oc3c2)ccn1 [Compound 54, 4-[2-((R)-1-Cyclohexyl-ethylamino)-benzooxazol-6-yloxy]-pyridine-2-carboxylic acid methylamide] |  |  |  |  | 17 | 7 | 60 | 100 |  | 64 | 
3 | CNC(=O)c1cc(Oc2ccc3nc(NCc4c(F)cccc4OC)sc3c2)ccn1 [Example 223, 4-(2-(2-fluoro-6-methoxybenzylamino)benzo[d]thiazol-6-yloxy)-N-methylpicolinamide] | 54 | 28 | 97 | 100 |  |  |  |  | 100 |  | 
4 | CNC(=O)c1cc(Oc2ccc3nc(NCc4ccccc4N4CCCCC4)oc3c2)ccn1 [Compound 118, 4-[2-(2-Piperidin-1-yl-benzylamino)-benzooxazol-6-yloxy]-pyridine-2-carboxylic acid methylamide] |  |  |  |  | 95 | 49 | 69 | 100 |  | 83 | 
5 | CNC(=O)c1cc(Oc2ccc3nc(NCc4cccc5c4OCCO5)sc3c2)ccn1 [Compound 152, 4-{2-[(2,3-Dihydro-benzo-[1,4]dioxin-5-ylmethyl)-amino]-benzothiazol-6-yloxy}-pyridine-2-carboxylic acid methylamide] |  |  |  |  | 100 | 82 | 98 | 99 |  | 100 | 
6 | CNC(=O)c1cc(Oc2ccc3nc(NCc4cc(OC)ccc4OC)sc3c2)ccn1 [Compound 146, 4-[2-(2,5-Dimethoxy-benzyl-amino)-benzothiazol-6-yloxy]-pyridine-2-carboxylic acid methylamide] |  |  |  |  | 5 | 3 | 86 | 99 |  | 56 | 
7 | CNC(=O)c1cc(Oc2ccc3nc(NCc4cccc(F)c4F)oc3c2)ccn1 [Compound 79, 4-[2-(2,3-Difluoro-benzylamino)-benzooxazol-6-yloxy]-pyridine-2-carboxylic acid methylamide] |  |  |  |  | 31 | 0 | 94 | 100 |  | 57 | 
8 | CNC(=O)c1cc(Oc2ccc3nc(NCc4ccccc4F)sc3c2)ccn1 [Compound 140, 4-[2-(2-Fluoro-benzylamino)-benzothiazol-6-yloxy]-pyridine-2-carboxylic acid methylamide] |  |  |  |  | 92 | 0 | 90 | 100 |  | 52 | 
9 | CNC(=O)c1cc(Oc2ccc3nc(NCc4c(OC)cccc4OC)oc3c2)ccn1 [Compound 84, 4-[2-(2,6-Dimethoxy-benzyl-amino)-benzooxazol-6-yloxy]-pyridine-2-carboxylic acid methylamide] |  |  |  |  | 12 | 0 | 44 | 99 |  | 32 | 
10 | Cc1nc(-c2cc(Oc3ccc4nc(N[C@@H]5CCCC[C@H]5O)sc4c3)ccn2)[nH]c1C [Example 232, (1R,2R)-2-(6-(2-(4,5-dimethyl-1H-imidazol-2-yl)pyridin-4-yloxy)benzo[d]thiazol-2-ylamino)cyclohexanol] | 34 | 64 | 99 | 100 |  |  |  |  | 100 |  | 
11 | CC(C)CONC(=O)c1cc(Oc2ccc3nc(N[C@@H]4CCCC[C@H]4O)sc3c2)ccn1 [Example 381, 4-(2-((1R,2R)-2-hydroxycyclohexylamino)benzo[d]thiazol-6-yloxy)-N-isobutoxypicolinamide] |  |  |  |  | 30 | 20 | 99 | 100 |  |  | 100

More lines, main results first:

Row | inhibition at 1 µM ([1]; compounds of Table 3) [%] | inhibition at 1 µM ([2]; compounds of Table 3) [%] | inhibition at 1 µM ([3]; compounds of Table 3) [%] | inhibition at 1 µM ([4]; compounds of Table 3) [%] | inhibition at 1 µM [1] [%] | inhibition at 1 µM [2] [%] | inhibition at 1 µM ([3]; HEK293H cells) [%] | inhibition at 1 µM [4] [%] | SMILES | inhibition at 1 µM ([5]; compounds of Table 3) [%] | inhibition at 1 µM ([5]; MNFS60 cells) [%] | inhibition at 1 µM ([5]; MCSF dependent MNFS60 cells) [%]
12 |  |  |  |  | 27 | 27 | 99 | 100 | CC(C)C[C@H](CO)Nc1nc2ccc(Oc3ccnc(-c4cnn(C)c4)c3)cc2s1 [Example 355, (R)-4-methyl-2-(6-(2-(1-methyl-1H-pyrazol-4-yl)pyridin-4-yloxy)benzo[d]thiazol-2-ylamino)pentan-1-ol] |  |  | 100
13 | 20 | 3 | 48 | 100 |  |  |  |  | O[C@@H]1CCCC[C@H]1Nc1nc2ccc(Oc3ccnc(-n4ccnc4)c3)cc2s1 [Example 262, (1R,2R)-2-(6-(2-(1H-imidazol-1-yl)pyridin-4-yloxy)benzo[d]thiazol-2-ylamino)cyclohexanol] | 46 |  | 
14 |  |  |  |  | 29 | 9 | 79 | 100 | O[C@@H]1CCCC[C@H]1Nc1nc2ccc(Oc3ccnc(-c4ccco4)c3)cc2s1 [Example 371, (1R,2R)-2-(6-(2-(furan-2-yl)pyridin-4-yloxy)benzo[d]thiazol-2-ylamino)cyclohexanol] |  |  | 69
15 |  |  |  |  | 51 | 27 | 81 | 100 | CNC(=O)c1cc(Oc2ccc3nc(NCC4CCCN(S(C)(=O)=O)C4)sc3c2)ccn1 (centres unmarked) [Example 308, N-methyl-4-(2-((1-(methylsulfonyl)piperidin-3-yl)methylamino)benzo[d]thiazol-6-yloxy)picolinamide] |  |  | 54
16 | 18 | 21 | 94 | 100 |  |  |  |  | CCc1nc(-c2cc(Oc3ccc4nc(N[C@@H]5CCCC[C@H]5O)sc4c3)ccn2)[nH]c1CC [Example 266, (1R,2R)-2-(6-(2-(4,5-diethyl-1H-imidazol-2-yl)pyridin-4-yloxy)benzo[d]thiazol-2-ylamino)cyclohexanol] | 100 |  | 
17 | 45 | 16 | 94 | 100 |  |  |  |  | C[C@H](Nc1nc2ccc(Oc3ccnc(-c4ccncc4)c3)cc2s1)C1CCCCC1 [Example 275, (S)-6-(2,4'-bipyridin-4-yloxy)-N-(1-cyclohexylethyl)benzo[d] thiazol-2-amine] | 89 |  | 
18 |  |  |  |  | 19 | 13 | 93 | 100 | O[C@@H]1CCCC[C@H]1Nc1nc2ccc(Oc3ccnc(-c4cccnc4)c3)cc2s1 [Example 345, (1R,2R)-2-(6-(2,3'-bipyridin-4-yloxy)benzo[d]thiazol-2-ylamino)cyclohexanol] |  |  | 97
19 | 38 | 12 | 75 | 100 |  |  |  |  | C[C@H](Nc1nc2ccc(Oc3ccnc(-c4cnc5[nH]ccc5c4)c3)cc2s1)C1CCCCC1 [Example 278, (S)-6-(2-(1H-pyrrolo[2,3-b]pyridin-5-yl)pyridin-4-yloxy)-N-(1-cyclohexylethyl)benzo[d] thiazol-2-amine] | 82 |  | 
